Test system: human platelets
Assay: Platelet aggregation in human platelet-rich plasma
Type: cell-based
Conditions: peptide inhibitors 30 & 100 μM
Method: FIG. 9 presents exemplary data showing platelet aggregation modulation using 0.5 ml of normal human platelet-rich plasma (PRP) with varying amounts of P149 or P 149b using 2.5×10^6 platelets per reaction vessel.
FIG. 10 presents exemplary data showing platelet aggregation activation by arachidonic acid (AA) and collagen using P149-treated platelet suspensions • Panel A1: AA alone; • Panel A2: AA followed by epinephine (EPI) and EPI alone using P149b; • Panel A3: CD62P flow cytometry fluorescence quenching by P149; • Panel B1: collagen alone and collagen+P149; • Panel B2: collagen alone; collagen+P149a showing aggregation diminution.
GIP-derived peptide fragments and/or subfragments have been assayed for platelet aggregation by measuring light transmissions with an aggregometer using a stirred human platelet suspension. Kinlough-Rathbone et al., In: Platelet Aggregation in Measurements of Platelet Function, Eds. Harker L A, Zimmerman T S., Churchill Livingstone, London. pp. 64-87 (1983); and Whittle et al., “Specificity between the anti-aggregatory actions of prostacyclin, prostaglandin Eland D2 on platelets” In: Mechanisms of stimulus—response coupling in platelets, Eds. V. V. K., MacIntyre D E, Scully M F., New York and London: Plenum Press. pp. 109-115 (1985).
The ability of GIP and its fragments were individually examined for aggregation inhibition using citrated human platelet-rich plasma (PRP). The peptides were freshly dissolved in 0.15 M NaCl containing 2.5×10^6 platelets/ml. […]

**Q.** What does the source list for Risotcetin [reference compound]?
**A.** Inhibition (%) Of Platelet Aggregation, Adenosine Diphosphate (ADP) 2.5 μM: 100%; Inhibition (%) Of Platelet Aggregation, Arachidonic Acid (AA) 0.3 mM: 100%; Inhibition (%) Of Platelet Aggregation, Collagen (COLL) 2 μg/ml: 100%; Inhibition (%) Of Platelet Aggregation, Epinephrine: 100%

B1: α2-antiplasma: positive control in the platelet aggregation assay (protein, UniProt P08697 40-491, looked up)
Alpha-2-antiplasmin: NQEQVSPLTLLKLGNQEPGGQTALKSPPGVCSRDPTPEQTHRLARAMMAFTADLFSLVAQTSTCPNLILSPLSVALALSHLALGAQNHTLQRLQQVLHAGSGPCLPHLLSRLCQDLGPGAFRLAARMYLQKGFPIKEDFLEQSEQLFGAKPVSLTGKQEDDLANINQWVKEATEGKIQEFLSGLPEDTVLLLLNAIHFQGFWRNKFDPSLTQRDSFHLDEQFTVPVEMMQARTYPLRWFLLEQPEIQVAHFPFKNNMSFVVLVPTHFEWNVSQVLANLSWDTLHPPLVWERPTKVRLPKLYLKHQMDLVATLSQLGLQELFQAPDLRGISEQSLVVSGVQHQSTLELSEVGVEAAAATSIAMSRMSLSSFSVNRPFLFFIFEDTTGLPLFVGSVRNPNPSAPRELKEQQDSPGNKDFLQSLKGFPRGDKLFGPDLKLVPPMEEDYPQFGSPK
**Q.** With B1 as the molecule, how does the “Inhibition (%) Of Platelet Aggregation, Adenosine Diphosphate (ADP) 2.5 μM” value read?
**A.** Its value is 85-90%.

**Q.** And the “Inhibition (%) Of Platelet Aggregation, Arachidonic Acid (AA) 0.3 mM” value?
**A.** The value was 100%.

**Q.** And the “Inhibition (%) Of Platelet Aggregation, Collagen (COLL) 2 μg/ml” value?
**A.** Its value is 90%.

**Q.** And the “Inhibition (%) Of Platelet Aggregation, Epinephrine” value?
**A.** The value was “No effect”.
